Results: patent US9296776B2, “Substituted nucleoside derivatives with antiviral and antimicrobial properties” (Eastern Virginia Medical School, priority 2007, dated 2016)
In brackets after ≈: the same amount, converted by molar mass. Like-named read-outs stand apart in the source and are kept apart here.

Tests used:
[1] = system: HIV-1 IIIB (cell-free virus); assay: microbe, parasite or virus in culture; type: cell-based; conditions: for IC50: read-out: IC50 Cell-Free Virus IIIB
CCRF-CEM cell line = type: cell-based, human
Procedure: Cells were incubated with 10 μM of DMSO, FAM, KPH-1.5 and KPH-1.6 for 1 h and then imaged using a light microscope (ZEISS Axioplan 2) equipped with transmitted light microscopy with a differential-interference contrast method and an Achroplan 40× objective. […] The results further confirm the higher cellular uptake of KPH-1.6, a fatty acyl derivative of FLT, in comparison to KPH-1.5 and FAM alone. Similar results were also observed with fluorescein-substituted derivative of 3TC.

[2] = system: HIV-1 BaL (cell-free virus); assay: Single-round infection assay, cell-free virus BaL; type: cell-based; conditions: for IC50: read-out: IC50 Cell-Free Virus BaL
[3] = system: Cell-associated HIV-1, SupT1 (IIIB); assay: Single-round infection assay, cell-associated virus SupT1 (IIIB); type: cell-based
[4] = Cytotoxicity (Tables 4, 6, 8)
H. ducreyi Strain HMC56 = assay: Antibacterial activity (MIC), strain HMC56; type: cell-based, Haemophilus ducreyi
H. ducreyi Strain HMC 62 = assay: Antibacterial activity (MIC), strain HMC 62; type: cell-based, Haemophilus ducreyi
H. ducreyi Strain HMC 64 = assay: Antibacterial activity (MIC), strain HMC 64; type: cell-based, Haemophilus ducreyi
[5] = system: HIV-1 clinical isolate R5 = 92TH014; assay: Antiviral activity against HIV-1 clinical isolate R5, RT endpoint; type: cell-based
[6] = system: Multidrug resistant virus 7324-1; assay: Antiviral activity against multidrug resistant HIV, RT endpoint; type: cell-based, HIV-1
[7] = Table 1, 2 h incubation, wash, 48 h culture
[8] = [Haemophilus] ducreyi, read-out: MIC (minimum inhibitory concentration)
[9] = Table 2, 6 h incubation then 6 days
[10] = Table 2, MDR = 7324-1, RT endpoint, 6 h incubation then 6 days

3′-fluoro-2′,3′-dideoxy-5′-O-(12-(N-5(6)carboxylfluoresceinaminododecanoyl)thymidine
IC50 Cell-Free Virus IIIB [1, 7]: 4.3 µg/mL | cell fluorescence by microscopy (CCRF-CEM cell line): showed fluorescence

5(6)-carboxyfluorescein [FAM, reference compound]
cell fluorescence by microscopy (CCRF-CEM cell line): no significant fluorescence

Nc1ccn([C@@H]2CS[C@H](CO)O2)c(=O)n1 [2′,3′-dideoxy-3′-thiacytidine, reference compound]
IC50 ([1]; Human immunodeficiency virus 1, IIIB): 7.5 µg/mL (≈ 32.7 µM) | IC50 ([2]; Human immunodeficiency virus 1, BAL): 2.6 µg/mL (≈ 11.3 µM) | IC50 ([3]; Human immunodeficiency virus 1, IIIB, SUP-T1, read-out: IC50 Cell-Associated Virus SupT1 (IIIB)): 18.4 µg/mL (≈ 80.3 µM) | CC50 [4]: > 100 µg/mL

CCCCCSCCCCCCCC(=O)OC[C@H]1O[C@@H](n2cc(C)c(=O)[nH]c2=O)C[C@@H]1N=[N+]=[N-] [3′-azido-2′,3′-dideoxy-5′-O-(9-thiatertradecanoyl)thymidine]
IC50 Cell-Free Virus IIIB [1, 7]: 3.7 µg/mL (≈ 7.47 µM) | IC50 Cell-Free Virus BaL [2, 7]: 8.1 ( μg/mL | IC50 Cell-Associated Virus SupT1 (IIIB) [3, 7]: 42.0 µg/mL (≈ 84.7 µM) | MIC (minimum inhibitory concentration) (H. ducreyi Strain HMC56): 250 µg/mL (≈ 504 µM) | MIC (minimum inhibitory concentration) (H. ducreyi Strain HMC 62): 250 µg/mL (≈ 504 µM) | MIC (minimum inhibitory concentration) (H. ducreyi Strain HMC 64): 750 µg/mL (≈ 1510 µM)

Cc1cn([C@H]2C[C@H](N=[N+]=[N-])[C@@H](CO)O2)c(=O)[nH]c1=O [3′-azido-2′,3′-dideoxythymidine (AZT), 3′-azido-2′,3′-dideoxythymidine, reference compound]
IC50 ([1]; Human immunodeficiency virus 1, IIIB, Table 1, 2 h incubation, wash, 48 h culture): 9.2 µg/mL (≈ 34.4 µM) | EC50 ([1]; Human immunodeficiency virus 1, IIIB, Table 4, read-out: EC50 Cell-Free Virus IIIB): 2.4 µg/mL | IC50 ([2]; Human immunodeficiency virus 1, BAL, Table 1, 2 h incubation, wash, 48 h culture): 0.8 µg/mL (≈ 2.99 µM) | EC50 ([2]; Human immunodeficiency virus 1, BAL, Table 4): 4.2 µg/mL (≈ 15.7 µM) | IC50 ([3]; Human immunodeficiency virus 1, IIIB, SUP-T1, Table 1, 2 h incubation, wash, 48 h culture, read-out: IC50 Cell-Associated Virus SupT1 (IIIB)): > 100 µg/mL | EC50 ([3]; Human immunodeficiency virus 1, IIIB, SUP-T1, Table 4): > 100 µg/mL | IC50 ([5]; Human immunodeficiency virus 1, Table 2, 6 h incubation then 6 days, read-out: IC50): 0.02 µg/mL (≈ 0.0748 µM) | IC50 ([6]; Human immunodeficiency virus 1): 0.33 µg/mL (≈ 1.23 µM) | MIC (H. ducreyi Strain HMC56; [8]): 125 µg/mL (≈ 468 µM) | MIC (H. ducreyi Strain HMC 62; [8]): 750 µg/mL (≈ 2810 µM) | MIC (H. ducreyi Strain HMC 64; [8]): 500 µg/mL (≈ 1870 µM) | CC50 (in vitro): > 100 µg/mL

Cc1cn([C@H]2C[C@H](F)[C@@H](COC(=O)CCCCCCCCCCCN=[N+]=[N-])O2)c(=O)[nH]c1=O [3′-fluoro-2′,3′-dideoxy-5′-O-(12-azidododecanoyl)thymidine]
IC50 Cell-Free Virus IIIB [1, 7]: 0.4 µg/mL (≈ 0.856 µM) | IC50 Cell-Free Virus BaL [2, 7]: 0.2 µg/mL (≈ 0.428 µM) | IC50 Cell-Associated Virus SupT1 (IIIB) [3, 7]: 5.9 µg/mL (≈ 12.6 µM) | IC50 [5, 9]: 0.003 µg/mL (≈ 0.00642 µM) | IC50 [6, 10]: 0.003 µg/mL (≈ 0.00642 µM) | MIC (minimum inhibitory concentration) (H. ducreyi Strain HMC56): 500 µg/mL (≈ 1070 µM) | MIC (minimum inhibitory concentration) (H. ducreyi Strain HMC 62): 125 µg/mL (≈ 267 µM) | MIC (minimum inhibitory concentration) (H. ducreyi Strain HMC 64): 125 µg/mL (≈ 267 µM)

CCSCCCCCCCCCCCC(=O)OC[C@H]1O[C@@H](n2cc(C)c(=O)[nH]c2=O)C[C@@H]1F [3′-fluoro-2′,3′-dideoxy-5′-O-(13-thiapentadecanoyl)thymidine]
IC50 Cell-Free Virus IIIB [1, 7]: 0.5 µg/mL (≈ 1.03 µM) | IC50 Cell-Free Virus BaL [2, 7]: <0.1 µg/mL | IC50 Cell-Associated Virus SupT1 (IIIB) [3, 7]: 1.1 µg/mL (≈ 2.26 µM) | IC50 [5, 9]: 0.002 µg/mL (≈ 0.00411 µM) | IC50 [6, 10]: 0.002 µg/mL (≈ 0.00411 µM) | MIC (minimum inhibitory concentration) (H. ducreyi Strain HMC56): 125 µg/mL (≈ 257 µM) | MIC (minimum inhibitory concentration) (H. ducreyi Strain HMC 62): 125 µg/mL (≈ 257 µM) | MIC (minimum inhibitory concentration) (H. ducreyi Strain HMC 64): 125 µg/mL (≈ 257 µM)

CCCCCCCCCCCCCC(=O)OC[C@H]1O[C@@H](n2cc(C)c(=O)[nH]c2=O)C[C@@H]1F [3′-fluoro-2′,3′-dideoxy-5′-O-(tetradecanoyl)thymidine]
IC50 Cell-Free Virus IIIB [1, 7]: 0.3 µg/mL (≈ 0.66 µM) | IC50 Cell-Free Virus BaL [2, 7]: 0.5 µg/mL (≈ 1.1 µM) | IC50 Cell-Associated Virus SupT1 (IIIB) [3, 7]: 2.9 µg/mL (≈ 6.38 µM) | IC50 [5, 9]: 0.003 µg/mL (≈ 0.0066 µM) | IC50 [6, 10]: 0.002 µg/mL (≈ 0.0044 µM)

Cc1cn([C@H]2C=C[C@@H](COC(=O)CCCCCCCCCCCBr)O2)c(=O)[nH]c1=O [12-bromododecanoyl-2′,3′-didehydro-2′,3′-dideoxythymidine]
IC50 Cell-Free Virus IIIB [1, 7]: 7.2 µg/mL (≈ 14.8 µM) | IC50 Cell-Free Virus BaL [2, 7]: 1.1 µg/mL (≈ 2.27 µM) | IC50 Cell-Associated Virus SupT1 (IIIB) [3, 7]: >100 µg/mL

CCCCCCCCCCCCCC(=O)NCCCCC(NC(=O)CCNC(=O)C(CCC(=O)OC[C@H]1O[C@@H](n2cc(C)c(=O)[nH]c2=O)C[C@@H]1F)NC(C)=O)C(=O)O (some centres unmarked) [KPH-91, FLT(Glutamyl)-myrsitoyllysine]
EC50 Cell-free HIV-1 (IIIB) ([1]; Table 8, 2 h incubation, wash, 48 h culture): 8.7 µg/mL (≈ 10.5 µM) | EC50 ([1]; Table 8, 2 h incubation, wash, 48 h culture, read-out: EC50 Cell-free HIV-1 (IIIB)): 10.5 µM | CC50 [4]: > 100 µg/mL

CCCCCCCCCCCCCC(=O)NCCCC[C@H](NC(=O)CCNC(=O)[C@H](CCC(=O)OC[C@H]1O[C@@H](n2cc(C)c(=O)[nH]c2=O)C[C@@H]1F)NC(=O)CCCCCCCCCCCCC)C(=O)O [KPH-92, FLT(myristoylglutamyl)-mysritoyllysine]
CC50 [4]: > 100 µg/mL
